Source: a compilation of properties of binary mixtures (doi:10.7498/aps.66.196101)

Experiment: xn = mol fraction of the nth substance listed
Conditions: 100 kPa

CCCn1cc[n+](C)c1.N[C@@H](CO)C(=O)[O-] + O
Conditions	electrical conductivity, x1 = 0.8651 [S/m]	electrical conductivity, x1 = 0.881 [S/m]	electrical conductivity, x1 = 0.8954 [S/m]	electrical conductivity, x1 = 0.9112 [S/m]	electrical conductivity, x1 = 0.9275 [S/m]	viscosity, x1 = 0.878 [mPa·s]	viscosity, x1 = 0.8933 [mPa·s]	viscosity, x1 = 0.909 [mPa·s]	viscosity, x1 = 0.9253 [mPa·s]	viscosity, x1 = 0.9422 [mPa·s]
298.15 K	0.0244	0.0231	0.0219	0.0204	0.0191	–	2259	–	–	2495
303.15 K	0.0369	0.0356	0.0339	0.0321	0.0301	1399	1414	1439	1477	–
308.15 K	0.0559	0.0538	0.0521	0.0497	0.0469	–	923	942	966	1000
313.15 K	–	0.0775	–	–	0.0685	617	624	633	650	670
318.15 K	0.112	0.109	0.106	–	–	428	–	–	447	462
323.15 K	0.154	–	–	0.14	0.135	300	306	312	322	–
328.15 K	0.204	–	0.194	0.187	0.182	229	231	234	–	245
333.15 K	0.268	0.261	0.256	–	0.241	–	172.3	174.6	178.4	183
338.15 K	0.342	0.333	0.327	–	–	130.5	131.1	132.4	–	137.2

CC[n+]1ccccc1.N#C[N-]C#N + O
Conditions	electrical conductivity, x1 = 0.9285 [S/m]	electrical conductivity, x1 = 0.9414 [S/m]	electrical conductivity, x1 = 0.9545 [S/m]	electrical conductivity, x1 = 0.9681 [S/m]	electrical conductivity, x2 = 0.0181 [S/m]	viscosity, x1 = 0.9353 [mPa·s]	viscosity, x1 = 0.9484 [mPa·s]	viscosity, x1 = 0.9617 [mPa·s]	viscosity, x1 = 0.9754 [mPa·s]	viscosity, x2 = 0.0105 [mPa·s]
298.15 K	2.27	–	2.06	–	1.86	14.98	15.27	15.62	16.02	–
303.15 K	2.46	2.37	–	2.18	2.08	12.98	13.23	13.58	–	14.38
308.15 K	2.75	2.66	–	2.48	2.39	11.41	11.59	11.87	12.17	–
313.15 K	3.05	2.98	2.9	–	2.74	–	10.26	–	10.73	–
318.15 K	3.39	3.33	–	3.18	3.1	8.95	9.11	9.32	9.52	9.75
323.15 K	3.85	3.78	3.7	3.61	3.54	7.77	7.9	8.08	–	8.44
328.15 K	4.34	4.26	4.18	4.08	4.01	7.01	7.13	7.28	–	7.61
333.15 K	–	–	4.7	–	4.48	6.35	6.45	6.58	6.73	6.88
338.15 K	5.47	5.34	5.24	5.11	5.01	–	–	5.98	–	6.22

CCC[n+]1ccccc1.N#C[N-]C#N + O
Conditions	electrical conductivity, x1 = 0.9305 [S/m]	electrical conductivity, x1 = 0.9444 [S/m]	electrical conductivity, x1 = 0.9588 [S/m]	electrical conductivity, x1 = 0.9735 [S/m]	electrical conductivity, x2 = 0.0114 [S/m]	viscosity, x1 = 0.9277 [mPa·s]	viscosity, x1 = 0.9416 [mPa·s]	viscosity, x1 = 0.9559 [mPa·s]	viscosity, x1 = 0.9705 [mPa·s]	viscosity, x2 = 0.0144 [mPa·s]
298.15 K	–	1.44	1.41	1.37	1.34	20.93	21.6	–	–	24.55
303.15 K	–	–	1.61	–	1.53	17.56	18.05	18.78	19.65	20.53
308.15 K	2.03	1.97	1.91	1.86	1.81	15.11	15.43	15.97	16.69	17.49
313.15 K	2.35	2.3	2.23	2.17	–	–	13.31	–	14.28	14.87
318.15 K	2.64	–	2.57	2.52	2.47	11.38	11.63	11.99	–	12.93
323.15 K	2.98	–	2.92	–	2.84	–	9.95	10.29	10.68	11.07
328.15 K	3.42	3.38	3.33	3.29	3.25	8.53	–	–	9.21	9.66
333.15 K	3.88	–	3.77	–	3.68	7.65	7.77	7.97	8.23	8.57
338.15 K	4.31	4.27	–	4.17	4.11	6.91	7.01	–	7.41	7.68

CCCC[n+]1ccn(C)c1.N[C@@H](CO)C(=O)[O-] + O
Conditions	electrical conductivity, x1 = 0.8285 [S/m]	electrical conductivity, x1 = 0.843 [S/m]	electrical conductivity, x1 = 0.8591 [S/m]	electrical conductivity, x1 = 0.8757 [S/m]	electrical conductivity, x1 = 0.8918 [S/m]	viscosity, x1 = 0.852 [mPa·s]	viscosity, x1 = 0.8736 [mPa·s]	viscosity, x1 = 0.894 [mPa·s]	viscosity, x1 = 0.9165 [mPa·s]	viscosity, x1 = 0.9388 [mPa·s]
298.15 K	0.0076	0.0071	0.0068	0.0065	–	5107	5135	–	–	5270
303.15 K	0.0118	0.0111	–	–	0.0097	2975	3000	–	3073	3147
308.15 K	0.0196	0.0183	0.017	0.016	0.0151	1828	1843	1868	1897	1952
313.15 K	0.0293	0.028	0.0261	0.0247	0.0237	1135	1159	–	1231	–
318.15 K	0.0423	0.0402	0.0375	0.0357	0.0341	753	768	790	822	870
323.15 K	0.0597	0.0565	0.0534	0.0511	0.0488	523	532	544	566	597
328.15 K	0.0817	–	–	0.0703	0.0679	–	352	–	388	–
333.15 K	–	0.106	–	0.0958	0.0921	247	255	266	279	304
338.15 K	0.146	0.14	–	0.127	0.122	–	187.4	197	212	229
